Results reported in US6559137B1 (priority 1997, dated 2003).
Where two headings read alike, the source gives them in different places.

Tests used:
in vivo = details: both, Sprague-Dawley, rat, po
[1] = both, Sprague-Dawley, rat, in vivo, po
[2] = dog, in vivo, po

CC(C)CN(C[C@@H](O)[C@H](Cc1ccccc1)NC(=O)O[C@H]1CCOC1)S(=O)(=O)c1ccc(N)cc1 [VX-478]
AUC (in vivo): 29600 ± 5800 ng·h/mL
AUC [1]: 16200 ± 1800 ng·h/mL
AUC [2]: 23500 ± 7400 ng·h/mL
Cmax [2]: 6800 ± 1100 ng/mL
Tmax [2]: 1.0 ± 0.8 h
